Laboratory results from patent US20260240865A1, “HARNESSING IKZF:BETA-CATENIN COMPLEXES IN THE TREATMENT OF LYMPHOCYTE ASSOCIATED DISEASES OR CONDITIONS” (Yale University, priority 2022, published 2026).

T1: Stat5, mouse (mouse, UniProt Q9JIA0 1-793)
T1 sequence: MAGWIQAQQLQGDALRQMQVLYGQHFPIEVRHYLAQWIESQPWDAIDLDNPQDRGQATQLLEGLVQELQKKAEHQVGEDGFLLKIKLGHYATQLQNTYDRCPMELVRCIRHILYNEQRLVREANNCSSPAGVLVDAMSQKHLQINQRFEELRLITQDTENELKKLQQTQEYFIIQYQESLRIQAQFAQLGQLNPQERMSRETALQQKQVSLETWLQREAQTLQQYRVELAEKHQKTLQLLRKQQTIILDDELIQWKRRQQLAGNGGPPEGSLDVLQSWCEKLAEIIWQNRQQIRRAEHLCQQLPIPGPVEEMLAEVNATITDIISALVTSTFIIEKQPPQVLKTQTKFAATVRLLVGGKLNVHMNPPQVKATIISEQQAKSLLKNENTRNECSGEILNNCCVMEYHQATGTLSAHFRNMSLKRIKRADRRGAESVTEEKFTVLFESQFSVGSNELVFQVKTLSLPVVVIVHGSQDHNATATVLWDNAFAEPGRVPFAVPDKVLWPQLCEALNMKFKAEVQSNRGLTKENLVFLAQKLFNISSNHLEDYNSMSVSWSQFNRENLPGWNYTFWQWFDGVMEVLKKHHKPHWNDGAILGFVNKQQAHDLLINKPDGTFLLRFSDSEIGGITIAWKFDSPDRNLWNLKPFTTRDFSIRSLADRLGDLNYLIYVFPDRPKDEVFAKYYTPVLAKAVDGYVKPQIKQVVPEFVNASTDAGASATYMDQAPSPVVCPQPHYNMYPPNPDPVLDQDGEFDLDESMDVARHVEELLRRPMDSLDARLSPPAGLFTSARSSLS

B1: β-catenin (Ctnnb1), mouse (other, UniProt Q02248 2-781, looked up)
chain: ATQADLMELDMAMEPDRKAAVSHWQQQSYLDSGIHSGATTTAPSLSGKGNPEEEDVDTSQVLYEWEQGFSQSFTQEQVADIDGQYAMTRAQRVRAAMFPETLDEGMQIPSTQFDAAHPTNVQRLAEPSQMLKHAVVNLINYQDDAELATRAIPELTKLLNDEDQVVVNKAAVMVHQLSKKEASRHAIMRSPQMVSAIVRTMQNTNDVETARCTAGTLHNLSHHREGLLAIFKSGGIPALVKMLGSPVDSVLFYAITTLHNLLLHQEGAKMAVRLAGGLQKMVALLNKTNVKFLAITTDCLQILAYGNQESKLIILASGGPQALVNIMRTYTYEKLLWTTSRVLKVLSVCSSNKPAIVEAGGMQALGLHLTDPSQRLVQNCLWTLRNLSDAATKQEGMEGLLGTLVQLLGSDDINVVTCAAGILSNLTCNNYKNKMMVCQVGGIEALVRTVLRAGDREDITEPAICALRHLTSRHQEAEMAQNAVRLHYGLPVVVKLLHPPSHWPLIKATVGLIRNLALCPANHAPLREQGAIPRLVQLLVRAHQDTQRRTSMGGTQQQFVEGVRMEEIVEGCTGALHILARDVHNRIVIRGLNTIPLFVQLLYSPIENIQRVAAGVLCELAQDKEAAEAIEAEGATAPLTELLHSRNEGVATYAAAVLFRMSEDKPQDYKKRLSVELTSSLFRTEPMAWNETADLGLDIGAQGEALGYRQDDPSYRSFHSGGYGQDALGMDPMMEHEMGGHHPGADYPVDGLPDLGHAQDLMDGLPPGDSNQLAWFDTDL
notes: Protein from lysates of BCR-ABL1-transformed Ctnnb1^ex3fl/+ murine B-ALL cells, immunoprecipitated with antibody 14/β-catenin; After Cre-ER^T2/4-OHT one allele lacks exon 3 (GSK3β phosphorylation sites), so the stabilised exon-3-deleted form and the wild type are both present

What was measured:
[1] = system: β-catenin and MYC protein levels in B-ALL cells; experiment: Western blot of β-catenin and MYC after GSK3β inhibitor treatment; format: cell-based, human; details: for β-catenin accumulation and MYC suppression: B-ALL (PDX2) cells, 16 hours, FIGS. 7A, 7C, 18C
Protocol: Cells were washed twice with ice-cold PBS and were lysed in CelLytic buffer (Sigma-Aldrich) supplemented with 1% protease inhibitor cocktail (Roche Diagnostics), 1% phosphatase inhibitor cocktail (EMD Millipore) and 1 mM PMSF (CST) on ice. 10-20 μg of cell lysates were separated on precast gels (Bio-Rad) and transferred on nitrocellulose membranes (Bio-Rad). After blocking for an hour in TBS-T with 2% BSA, membranes were probed with the appropriate primary antibodies listed in Table 6. Membranes were incubated with alkaline-phosphatase conjugated secondary antibodies (Invitrogen) and analyzed with Chemi Doc™ MP Imaging System (Bio-Rad). For fractionation experiment Nuclear and Cytoplasmic Extraction Reagent (Thermo Scientific) was used according to manufacturer's instructions.

[2] = system: B-lymphoid leukemia and lymphoma cells; experiment: Cell viability assay (Cell Titer Glo 2.0) with GSK3β inhibitors; format: cell-based, human; details: B-lymphoid vs myeloid and epithelial cells (PDX2, BV173, LAX2 vs THP1, SW620, H82); 3 days
Protocol: Forty thousand patient-derived pre-B ALL cells or twenty thousand leukemia/lymphoma cell lines or ten thousand colon/lung cancer cells were seed in a volume of 80 μl in complete growth medium on 96-well plate. GSK3β3 inhibitors were added at the indicated concentration in a total volume of 100 μl. After treatment for 3 days, Cell Titer Glo 2.0 assays (Promega) were performed according to the manufacturer's instructions. Relative viability was calculated by measuring the luminescence value and normalizing it to baseline values of untreated cells.
Data are shown as mean±s.d. unless stated. Statistical analysis was performed by GraphPad Prism 7 (GraphPad Software Inc.) using unpaired two-tailed t test or log-rank test as indicated in figure legends. Significance was considered at P<0.05. Kaplan-Meier survival analysis was used to estimate OS with GraphPad Prism 7. The investigators were not blinded to allocation during experiments and outcome assessment. Experiments were repeated to ensure reproducibility of the observations.

[3] = cited from earlier work; for Outcome: clinical responses / Outcome: safety: Phase 1 and 2; for safety and tolerability / PK/PD profile in clinical trials: micromolar plasma concentrations (Cmax); for Outcome: MTD: i.v.
[4] = system: B-cell lymphoma cell lines; experiment: Drug responses (AUC) to CHIR99021 across B-cell lymphoma cell lines; format: cell-based, human; details: 84 B-cell lymphoma cell lines; 8q24+ n=31, 8q24- n=53; P=5.2E-07
Source text: In some embodiments, the IC50 can be calculated by using the Broad Repurposing Library and the PRISM multiplexed cell-line viability assay. Any assay or technique known in the art can be used for the calculation of the IC50 for the purposed of the present invention. The mutation data for CTNNB1, APC, AXIN1, AXIN2 and GSK3β genes were acquired from https://cancer.sanger.ac.uk/cosmic. The data for RIC staining of β-catenin was obtained from https://www.proteinatlas.org/. The RNA-seq data and mass spectrometry data for β-catenin and IKZF1 in human cancer cell lines were obtained from depmap.org/portal/download/. Data for drug-response of solid tumor cell lines to were acquired from depmap.org/portal/download/. Hallmark Myc-Targets V1 and Hallmark Myc-Targets V2 gene sets were acquired from MSigDB. RNA-seq data was deposited to GEO with the accession number GSE196767 and ChIP-seq data was deposited to GEO with accession number GSE196745. All other data are available from the corresponding author upon reasonable request.

[5] = system: Human B-ALL xenograft cells (SFO5); experiment: Colony formation assay of B-ALL xenograft cells; format: cell-based; details: SFO5, lenalidomide 0.5 μM for 2 days
Protocol: For colony forming assays, 10,000 mouse BCR-ABL1 or NRAS^G12D were grown on MethoCult medium (M3231 or M3630 (with IL-7) respectively, StemCell Technologies) in 3-cm diameter dishes with an extra dish filled with water to prevent evaporation. Colony forming assays with human leukemia/lymphoma cell lines were performed by plating 10,000 cells on MethoCult medium without human cytokines (H4230). For mouse pre-B cells 50.000 cells were grown on MethoCult medium with IL-7 (M3630). For colony forming assays assessing mouse myeloid progenitors, 10,000 cells were grown on MethoCult medium with mouse SCF, IL-3, IL-6, EPO (M3434). For human cord-blood derived colonies, 1000 CD34^+ HSCs were plated on MethoCult medium with recombinant human SCF, IL-3, IL-6, EPO, G-CSF, GM-CSF (H4435). For all colony forming experiments, colonies were imaged and counted using GelCount (Oxford Optronix) and 7-14 days after plating.

Stat5, mouse = target: T1, Stat5, mouse; experiment: co-IP with anti-β-catenin antibody and Western blot, murine B-ALL cells (FIG. 4B)
Protocol: Co-immunoprecipitation experiments were performed using Pierce Crosslink Magnetic IP/Co-IP kit according to manufacturer's instructions (Thermo Scientific).

Molecule | β-catenin accumulation and MYC suppression [1] | selective cell death / drug response [2] | Outcome: clinical responses [3] | safety and tolerability / PK/PD profile in clinical trials [3] | also measured
CHIR98014 | induced massive accumulation of β-catenin in parallel with acute suppression of MYC | induced cell death at low nanomolar concentrations selectively in B-lymphoid but not myeloid and epithelial cells |  |  | 
O=C1Nc2cc(Br)ccc2/C1=C1/Nc2ccccc2/C1=N\O [6-Bromoindirubin-3′-oxime] | induced massive accumulation of β-catenin in parallel with acute suppression of MYC | induced cell death at low nanomolar concentrations selectively in B-lymphoid but not myeloid and epithelial cells |  |  | 
Cn1cc(C2=C(c3coc4ccc(F)cc34)C(=O)NC2=O)c2cc3c(cc21)OCO3 [9-ING-41, Elraglusib] | failure to induce β-catenin accumulation and MYC-suppression | broad non-specific toxicity across all cell types tested | No clinical response | demonstrated safety and tolerability at micromolar plasma concentrations | Outcome: safety [3]: Phase 1 and 2, favorable safety
O=c1sn(-c2cccc3ccccc23)c(=O)n1Cc1ccccc1 [Tideglusib] | failure to induce β-catenin accumulation and MYC-suppression | no significant activity in any cell type | No clinical responses | demonstrated safety and tolerability at micromolar plasma concentrations | Outcome: safety [3]: Phase 1 and 2, favorable safety; Outcome: MTD [3]: 120 mg
Cc1c[nH]c(-c2cnc(NCCNc3ccc(C#N)cn3)nc2-c2ccc(Cl)cc2Cl)n1 [CHIR99021, Laduviglusib] | induced massive accumulation of β-catenin in parallel with acute suppression of MYC |  | No clinical responses | demonstrated safety and tolerability at micromolar plasma concentrations | Outcome: MTD [3]: 80 mg; sensitivity of B-cell lymphoma cell lines with MYC-rearrangement (8q24+) vs without [4]: substantially less sensitive
N#Cc1ccc2[nH]c(O)c(-c3ccc(CN4CCOCC4)cn3)c2c1 [AZD1080] |  |  |  | demonstrated safety and tolerability at micromolar plasma concentrations | 
Nc1cccc2c1CN(C1CCC(=O)NC1=O)C2=O (stereo not drawn) [lenalidomide] |  |  |  |  | MYC expression under β-catenin accumulation ([1]; SFO5 cells, lenalidomide 0.5 μM with LY2090314 20 nM): relieved β-catenin-induced transcriptional repression of MYC; colony formation under β-catenin accumulation [5]: relieved β-catenin-induced transcriptional repression of MYC and suppression of colony formation
B1 |  |  |  |  | binding result (Stat5, mouse): no binding
